This note sets out measurements from patent US9796711B2, “Substituted pyrazolo[3,4-b]pyridin-6-carboxylic acids and method of use” (AbbVie S.àr.l., priority 2015, dated 2017).

For experiment [1], the target named is T1, ΔF508-CFTR (Homo sapiens, UniProt P13569, DEL508-508).
T1 construct: host or cells: CFBE41o-, doxycycline-inducible
Put plainly: CFTR cell surface levels using HRP-tagged ΔF508-CFTR expressing CFBE cells, in the presence of a co-corrector. Format: cell-based. The method in brief: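 Cells were seeded with 0.5 μg/mL doxycycline and held 68 h at 37 °C. Test compounds plus 3 μM co-corrector (final 0.1% DMSO) were then added for 20 h at 33 °C. Washed cells received HRP substrate, and luminescence was normalized between DMSO and 3 μM co-corrector controls.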

In experiment [2] the target is T1, ΔF508-CFTR. Put plainly: CFTR cell surface levels using HRP-tagged ΔF508-CFTR expressing CFBE cells, intrinsic corrector capacity. Format: cell-based. A digest of the protocol:
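Here the cells express ΔF508-CFTR with horseradish peroxidase inserted in extracellular loop 4, so only rescued channel at the surface gives luminescent signal. Compounds act on their own, 20 h at the reduced temperature of 33 °C; values are percent activity relative to DMSO and a 3 μM corrector.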

The mark [3] stands for this setting: HRP-tagged ΔF508-CFTR expressing CFBE cells, in the presence of 3 μM co-corrector.
[4] abbreviates: HRP-tagged ΔF508-CFTR expressing CFBE cells, in the presence of 3 μM co-corrector, read-out: EC50.
Where [5] appears, read: HRP-tagged ΔF508-CFTR expressing CFBE cells, intrinsic corrector capacity (no co-corrector), 33° C., 20 hours.
The mark [6] stands for this setting: HRP-tagged ΔF508-CFTR expressing CFBE cells, intrinsic corrector capacity (no co-corrector), 33° C., 20 hours, read-out: EC50.
Setting [7] is: HRP-tagged ΔF508-CFTR CFBE41o- cells, compounds alone (intrinsic corrector capacity), 20 hours at 33° C., positive control 3 μM corrector.
The mark [8] stands for this setting: HRP-tagged ΔF508-CFTR CFBE41o- cells, compounds alone (intrinsic corrector capacity), 20 hours at 33° C., read-out: EC50.

pEC50: −log10 of the molar value.

T1 sequence (P13569 with tags, fused parts or gaps DEL508-508): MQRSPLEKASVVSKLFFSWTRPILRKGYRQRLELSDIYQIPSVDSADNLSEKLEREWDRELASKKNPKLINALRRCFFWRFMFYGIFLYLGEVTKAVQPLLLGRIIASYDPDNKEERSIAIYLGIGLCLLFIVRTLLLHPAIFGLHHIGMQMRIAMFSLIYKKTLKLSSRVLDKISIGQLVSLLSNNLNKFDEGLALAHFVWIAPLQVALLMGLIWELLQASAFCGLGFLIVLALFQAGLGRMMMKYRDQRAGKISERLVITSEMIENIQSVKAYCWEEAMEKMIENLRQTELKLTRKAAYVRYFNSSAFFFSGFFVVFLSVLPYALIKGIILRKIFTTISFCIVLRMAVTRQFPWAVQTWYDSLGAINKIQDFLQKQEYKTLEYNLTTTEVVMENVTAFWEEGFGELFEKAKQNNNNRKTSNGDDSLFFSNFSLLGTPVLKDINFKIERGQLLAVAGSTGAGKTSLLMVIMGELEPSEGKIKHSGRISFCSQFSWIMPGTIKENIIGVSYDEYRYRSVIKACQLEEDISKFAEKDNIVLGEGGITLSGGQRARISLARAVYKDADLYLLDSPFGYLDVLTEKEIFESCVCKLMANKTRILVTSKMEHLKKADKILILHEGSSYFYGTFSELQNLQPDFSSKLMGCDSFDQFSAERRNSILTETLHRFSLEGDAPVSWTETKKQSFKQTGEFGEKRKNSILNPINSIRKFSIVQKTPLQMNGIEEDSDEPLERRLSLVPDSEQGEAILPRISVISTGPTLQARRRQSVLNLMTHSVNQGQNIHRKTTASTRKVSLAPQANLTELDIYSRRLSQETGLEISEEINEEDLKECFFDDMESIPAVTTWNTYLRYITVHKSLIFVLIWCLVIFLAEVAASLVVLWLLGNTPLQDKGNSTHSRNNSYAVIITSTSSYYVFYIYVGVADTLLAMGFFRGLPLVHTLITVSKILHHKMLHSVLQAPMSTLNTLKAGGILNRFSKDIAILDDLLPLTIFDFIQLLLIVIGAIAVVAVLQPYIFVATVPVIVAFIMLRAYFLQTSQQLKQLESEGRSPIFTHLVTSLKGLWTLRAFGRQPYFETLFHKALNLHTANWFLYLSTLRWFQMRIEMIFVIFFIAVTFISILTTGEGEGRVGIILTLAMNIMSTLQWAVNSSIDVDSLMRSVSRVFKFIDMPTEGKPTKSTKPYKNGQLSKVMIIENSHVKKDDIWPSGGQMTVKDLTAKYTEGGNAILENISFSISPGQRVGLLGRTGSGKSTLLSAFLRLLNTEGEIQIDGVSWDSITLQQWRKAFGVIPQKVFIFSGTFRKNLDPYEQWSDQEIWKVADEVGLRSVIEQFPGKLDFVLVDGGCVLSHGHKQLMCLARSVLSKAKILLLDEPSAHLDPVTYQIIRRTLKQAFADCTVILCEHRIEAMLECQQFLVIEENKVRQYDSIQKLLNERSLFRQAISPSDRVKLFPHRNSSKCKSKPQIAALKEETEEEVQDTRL

For the compound `CO[C@@H]1CCN(c2cc(C(=O)O)nc3c2c(C2CCC2)nn3-c2ccccc2)C1` [compound 522, 3-cyclobutyl-4-[(3R)-3-methoxypyrrolidin-1-yl]-1-phenyl-1H-pyrazolo[3,4-b]pyridine-6-carboxylic acid], the “% Activation” value at ΔF508-CFTR [1] (setting [3]) is reported as 294.1%; at ΔF508-CFTR [2] (setting [5]) it was 114%. The pEC50 on ΔF508-CFTR [1] (setting [4]) is 5.97; on ΔF508-CFTR [2] (setting [6]), 6.32.

`COCC1CCN(c2cc(C(=O)O)nc3c2c(C(C)C)nn3-c2ccnc(N3CCOCC3)c2)CC1` [compound 525, 4-[4-(methoxymethyl)piperidin-1-yl]-1-[2-(morpholin-4-yl)pyridin-4-yl]-3-(propan-2-yl)-1H-pyrazolo[3,4-b]pyridine-6-carboxylic acid]: the results for the “% Activation” value at ΔF508-CFTR [1] (setting [3]) and at ΔF508-CFTR [2] (setting [5]) were 311.3% and 232.2%, respectively. For the same compound, the negative-log EC50 (pEC50) on ΔF508-CFTR [1] (setting [4]) was 6.03; on ΔF508-CFTR [2] (setting [6]), 6.38.

Consider `CCOC(=O)N1CCN(c2cc(C(=O)O)nc3c2c(C2CCC2)nn3-c2ccc(F)cc2)CC1` [compound 929, 3-cyclobutyl-4-[4-(ethoxycarbonyl)piperazin-1-yl]-1-(4-fluorophenyl)-1H-pyrazolo[3,4-b]pyridine-6-carboxylic acid], for which the “% Activation” value was 560% at ΔF508-CFTR [1] (setting [3]) and 474.3% on ΔF508-CFTR [2] (HRP-tagged ΔF508-CFTR CFBE cells, compound alone (intrinsic corrector capacity), 20 hours at 33° C.). Besides, the pEC50 on ΔF508-CFTR [1] (setting [4]) was 7.08; at ΔF508-CFTR [2] (HRP-tagged ΔF508-CFTR CFBE cells, compound alone (intrinsic corrector capacity), 20 hours at 33° C., read-out: EC50) it was 6.74.

For `O=C(O)c1cc(N2CCC(N3CCCCC3)CC2)c2c(C3CCC3)nn(-c3ccc(F)cc3)c2n1` [compound 693, 4-([1,4′-bipiperidin]-1′-yl)-3-cyclobutyl-1-(4-fluorophenyl)-1H-pyrazolo[3,4-b]pyridine-6-carboxylic acid], the entries for the “% Activation” value on ΔF508-CFTR [1] (setting [3]) and on ΔF508-CFTR [2] (setting [5]) were 392.45% and 185.9%, respectively. Further, the values for the pEC50 at ΔF508-CFTR [1] (setting [4]) and at ΔF508-CFTR [2] (setting [6]) were 6.49 and 5.90, respectively.

For `Cc1nn(-c2ccccc2)c2nc(C(=O)O)cc(-c3ccc(N4CC(O)C4)cc3)c12` [compound 124, 4-[4-(3-hydroxyazetidin-1-yl)phenyl]-3-methyl-1-phenyl-1H-pyrazolo[3,4-b]pyridine-6-carboxylic acid], the “% Activation” value at ΔF508-CFTR [1] (setting [3]) was 371.1%; on ΔF508-CFTR [2] (setting [7]) it was 190.5%. For the same compound, the negative logarithm of the EC50 (pEC50) at ΔF508-CFTR [1] (setting [4]) was 5.72; on ΔF508-CFTR [2] (setting [8]), 5.51.

On to `O=C(O)c1cc(N2CCN(CC(=O)N3CCOCC3)CC2)c2c(C3CCC3)nn(-c3ccccc3)c2n1` [compound 474, 3-cyclobutyl-4-{4-[2-(morpholin-4-yl)-2-oxoethyl]piperazin-1-yl}-1-phenyl-1H-pyrazolo[3,4-b]pyridine-6-carboxylic acid], for which the entries for the “% Activation” value on ΔF508-CFTR [1] (setting [3]) and at ΔF508-CFTR [2] (setting [5]) were 301.35% and 125.3%, respectively. Moreover, the results for the pEC50 at ΔF508-CFTR [1] (setting [4]) and at ΔF508-CFTR [2] (setting [6]) were 5.65 and 5.48, respectively.

Turning to `O=C(O)c1cc(N2CC3(CCOCC3)C2)c2c(C3CCC3)nn(-c3ccccc3)c2n1` [compound 425, 3-cyclobutyl-4-(7-oxa-2-azaspiro[3.5]nonan-2-yl)-1-phenyl-1H-pyrazolo[3,4-b]pyridine-6-carboxylic acid], the results for the “% Activation” value at ΔF508-CFTR [1] (setting [3]) and at ΔF508-CFTR [2] (setting [5]) were 262.45% and 123.35%, respectively. Besides, the pEC50 at ΔF508-CFTR [1] (setting [4]) was 6.46; on ΔF508-CFTR [2] (setting [6]) it was 6.00.

In the case of `CC(C)c1nn(-c2ccnc(N3CCOCC3)c2)c2nc(C(=O)O)cc(-c3ccc(N4CCC(C#N)CC4)nc3)c12` [compound 437, 4-[6-(4-cyanopiperidin-1-yl)pyridin-3-yl]-1-[2-(morpholin-4-yl)pyridin-4-yl]-3-(propan-2-yl)-1H-pyrazolo[3,4-b]pyridine-6-carboxylic acid], the “% Activation” value on ΔF508-CFTR [1] (setting [3]) stood at 419.53%; at ΔF508-CFTR [2] (setting [5]) it was 247.47%. In addition, the pEC50 on ΔF508-CFTR [1] (setting [4]) was 6.10; on ΔF508-CFTR [2] (setting [6]) it was 5.91.

For `O=C(O)c1cc(OCCN2CCCCC2)c2c(C3CCC3)nn(-c3ccccc3)c2n1` [compound 639, 3-cyclobutyl-1-phenyl-4-[2-(piperidin-1-yl)ethoxy]-1H-pyrazolo[3,4-b]pyridine-6-carboxylic acid], the “% Activation” value was 261.7% at ΔF508-CFTR [1] (setting [3]) and 96.54% on ΔF508-CFTR [2] (setting [5]). Moreover, the values for the pEC50 on ΔF508-CFTR [1] (setting [4]) and on ΔF508-CFTR [2] (setting [6]) were 5.78 and 5.66, respectively.

Turning to `O=C(O)c1cc(OC2CCCCCCC2)c2c(C3CCC3)nn(-c3ccccc3)c2n1` [compound 649, 3-cyclobutyl-4-(cyclooctyloxy)-1-phenyl-1H-pyrazolo[3,4-b]pyridine-6-carboxylic acid], the “% Activation” value at ΔF508-CFTR [1] (setting [3]) was 314.65%; at ΔF508-CFTR [2] (setting [5]), 107.6%. In addition, the negative logarithm of the EC50 (pEC50) on ΔF508-CFTR [1] (setting [4]) is 6.65; on ΔF508-CFTR [2] (setting [6]) it was 6.36.

As to `N#CC1CN(C2CCN(c3cc(C(=O)O)nc4c3c(C3CCC3)nn4-c3ccc(F)cc3)CC2)C1` [compound 847, 4-[4-(3-cyanoazetidin-1-yl)piperidin-1-yl]-3-cyclobutyl-1-(4-fluorophenyl)-1H-pyrazolo[3,4-b]pyridine-6-carboxylic acid], the results for the “% Activation” value at ΔF508-CFTR [1] (setting [3]) and on ΔF508-CFTR [2] (setting [5]) were 503.8% and 279.1%, respectively. Moreover, the pEC50 at ΔF508-CFTR [1] (setting [4]) was 6.54; at ΔF508-CFTR [2] (setting [6]), 6.27.

For the compound `O=C(O)c1cc(N2CCC(N3CCCC(F)C3)CC2)c2c(C3CCC3)nn(-c3ccc(F)cc3)c2n1` (centres unmarked) [compound 872, 3-cyclobutyl-4-(3-fluoro[1,4′-bipiperidin]-1′-yl)-1-(4-fluorophenyl)-1H-pyrazolo[3,4-b]pyridine-6-carboxylic acid], the “% Activation” value is on record as 548.45% at ΔF508-CFTR [1] (setting [3]) and 368.7% on ΔF508-CFTR [2] (setting [5]). In addition, the values for the pEC50 at ΔF508-CFTR [1] (setting [4]) and at ΔF508-CFTR [2] (setting [6]) were 6.76 and 6.23, respectively.

`Cc1nn(-c2ccccc2)c2nc(C(=O)O)cc(N3CC(N4CCOCC4)C3)c12` [compound 302, 3-methyl-4-[3-(morpholin-4-yl)azetidin-1-yl]-1-phenyl-1H-pyrazolo[3,4-b]pyridine-6-carboxylic acid]: the “% Activation” value was 131.6% on ΔF508-CFTR [1] (setting [3]) and 18.02% at ΔF508-CFTR [2] (setting [7]). For the same compound, the negative logarithm of the EC50 (pEC50) at ΔF508-CFTR [1] (setting [4]) and on ΔF508-CFTR [2] (setting [8]) was 5.12 each time.

Regarding `Cc1nn(-c2ccccc2)c2nc(C(=O)O)cc(-c3ccc(NC4CCOCC4)cc3)c12` [compound 145, 3-methyl-4-{4-[(oxan-4-yl)amino]phenyl}-1-phenyl-1H-pyrazolo[3,4-b]pyridine-6-carboxylic acid], the “% Activation” value on ΔF508-CFTR [1] (setting [3]) stood at 368.6%; on ΔF508-CFTR [2] (setting [7]), 190.2%. The negative-log EC50 (pEC50) at ΔF508-CFTR [1] (setting [4]) was 6.07; at ΔF508-CFTR [2] (setting [8]), 5.84.

Turning to `N#CC1CCN(c2ccc(-c3cc(C(=O)O)nc4c3c([C@H]3C[C@H](F)C3)nn4-c3ccccc3)cn2)CC1` [compound 433, 4-[6-(4-cyanopiperidin-1-yl)pyridin-3-yl]-3-(trans-3-fluorocyclobutyl)-1-phenyl-1H-pyrazolo[3,4-b]pyridine-6-carboxylic acid], the “% Activation” value was 369.1% on ΔF508-CFTR [1] (setting [3]) and 185.45% at ΔF508-CFTR [2] (setting [5]). Further, the results for the pEC50 at ΔF508-CFTR [1] (setting [4]) and on ΔF508-CFTR [2] (setting [6]) were 6.43 and 6.20, respectively.

As for `COCCN(C)c1ccc(-c2cc(C(=O)O)nc3c2c(C(C)C)nn3-c2cccc(N3CCCC3)c2)cn1` [compound 253, 4-{6-[(2-methoxyethyl)(methyl)amino]pyridin-3-yl}-3-(propan-2-yl)-1-[3-(pyrrolidin-1-yl)phenyl]-1H-pyrazolo[3,4-b]pyridine-6-carboxylic acid], the “% Activation” value is listed as 568.13% on ΔF508-CFTR [1] (setting [3]) and 375.87% at ΔF508-CFTR [2] (setting [7]). The negative-log EC50 (pEC50) at ΔF508-CFTR [1] (setting [4]) is 6.37; on ΔF508-CFTR [2] (setting [8]), 6.18.

Regarding `N#CC1CCN(c2ccc(-c3cc(C(=O)O)nc4c3c(OC3CCOC3)nn4-c3ccccc3)cn2)CC1` (centres unmarked) [compound 591, 4-[6-(4-cyanopiperidin-1-yl)pyridin-3-yl]-3-[(oxolan-3-yl)oxy]-1-phenyl-1H-pyrazolo[3,4-b]pyridine-6-carboxylic acid], the “% Activation” value was 286.4% at ΔF508-CFTR [1] (setting [3]) and 106.3% at ΔF508-CFTR [2] (setting [5]). The figures for the negative logarithm of the EC50 (pEC50) on ΔF508-CFTR [1] (setting [4]) and at ΔF508-CFTR [2] (setting [6]) were 6.35 and 6.03, respectively.

`O=C(O)c1cc(N2CCC3(CC2)CC(N2CCCC2)CO3)c2c(C3CCC3)nn(-c3ccc(F)cc3)c2n1` (centres unmarked) [compound 862, 3-cyclobutyl-1-(4-fluorophenyl)-4-[3-(pyrrolidin-1-yl)-1-oxa-8-azaspiro[4.5]decan-8-yl]-1H-pyrazolo[3,4-b]pyridine-6-carboxylic acid]: the results for the “% Activation” value at ΔF508-CFTR [1] (setting [3]) and on ΔF508-CFTR [2] (setting [5]) were 359.6% and 186.5%, respectively. Moreover, the pEC50 on ΔF508-CFTR [1] (setting [4]) and at ΔF508-CFTR [2] (setting [6]) was 6.20 in each case.

In the case of `Cc1nn(-c2ccccc2)c2nc(C(=O)O)cc(C(=O)N3CCCCC3)c12` [compound 158, 3-methyl-1-phenyl-4-(piperidine-1-carbonyl)-1H-pyrazolo[3,4-b]pyridine-6-carboxylic acid], the “% Activation” value at ΔF508-CFTR [1] (setting [3]) turned out to be 112.2%; at ΔF508-CFTR [2] (setting [7]), 1.521%. The pEC50 on ΔF508-CFTR [1] (setting [4]) and at ΔF508-CFTR [2] (setting [8]) was below 5.00 throughout.

For the compound `O=C(O)c1cc(NC[C@@H]2CCCO2)c2c(C3CCC3)nn(-c3ccccc3)c2n1` [compound 655, 3-cyclobutyl-4-({[(2S)-oxolan-2-yl]methyl}amino)-1-phenyl-1H-pyrazolo[3,4-b]pyridine-6-carboxylic acid], the pEC50 was 5.95 at ΔF508-CFTR [1] and 5.51 on ΔF508-CFTR [2]. Further, the “% Activation” value at ΔF508-CFTR [1] (setting [3]) was 340.2%; at ΔF508-CFTR [2] (setting [5]) it was 165.6%.
